Assay results: article PMC8802628, “Selective activation of PFKL suppresses the phagocytic oxidative burst” (Cell, 2021)

Key:
[1] = test system: PMNs; assay: ROS detection assay (ROS-Glo) in neutrophils; assay type: cell-based, human; settings: over 2 h
Experimental: ROS were measured using the ROS-Glo bioluminescent assay (Promega) for the direct detection of H2O2. Briefly, neutrophils (2 × 10^4) were plated in white 96-well plates (Greiner) in high glucose DMEM medium. Cells were cultured with DMSO vehicle, 0.5 μM NA-11, 5 μM LDC7559, 100 μM apocynin, or 200 μM thionicotinamide for 30 min, and then stimulated with 50 nM PMA or treated with 10 μg/mL zymosan beads, pre-opsonized in 20% serum for 30 min. Luminescence, after the addition of H2O2 substrate solution of 20 min, and then ROS-Glo detection solution for 20 min, was recorded on a plate reader (Envision).

[2] = test system: E. coli; assay: Phagocytosis assay: E. coli C.F.U. recovered from PMNs; assay type: cell-based, human; settings: neutrophils pretreated 30 min
Experimental: Neutrophils (1 × 10^6) were cultured in 6-well tissue in RPMI medium containing DMSO vehicle, 0.5 μM NA-11, 0.5 μM NA-4, 100 μM Apocynin or 100 μM thionicotinamide (TN) for 30 min. E. coli grown in LB broth overnight (2 mL) were opsonized with human serum (1 mL pooled from three donors) for 1 h at room temperature. Opsonized bacteria were washed with PBS, resuspended in LB broth to an OD600of 0.1 and then added to cultured neutrophils at an MOI of 1 for 30 min. Cells were washed with medium three times and then cultured with 300 μg/mL gentamicin for 2 h to kill any extracellular bacteria. Cells were then washed again, twice with medium and once with PBS. To release phagocytosed bacteria, neutrophils were lysed in 0.05% saponin in PBS. Lysates were passed through a 25’ gauge needed several times and the number of viable phagocytosed bacteria was determined by colony counting.

[3] = test system: PMNs; assay: Phagocytosis of zymosan particles by PMNs; assay type: cell-based, human; settings: neutrophils, zymosan 2 h
Experimental: Figure S7. NA-11 activates PFKL to prevent the oxidative burst and impair neutrophil defenses, related to Figures 4 and 6
(A) PFK1 activity in PMN lysates. Cells were pretreated with 0.5 mM NA-11, 5 mM LDC7559, 100 mM apocynin, 200 mM thionicotinamid e (TN), 1 mM MEK inhibitor U0126, or DMSO vehicle for 30 min, or 1 mM proteasome inhibitor bortezomib for 1 h, and then activated with 50 nM PMA for 30 min where indicated. Bars represent the mean ± s.d. of cells from 3 donors. (B) NADH:NAD+ ratio in PMA-activated PMNs. Cells were pretreated with 0.5 mM NA-11 or DMSO vehicle for 30 min, and then activated with 50 nM PMA for 30 min. Data are the mean ± s.d. of cells from 3 donors. (C) Immunolabeling of citrullinated histone H3 (magenta) and myeloperoxidase (red) in PMNs pretreated with 0.5 mM NA-11 or DMSO vehicle for 30 min and then stimulated for 4 h with 50 nM PMA, 10 mg/mL extracellular LPS, 0.5 mg/mL cholesterol crystals, or 25 mM nigericin. Chromatin is stained green. Scale bar, […]. Results are representative of 3 independent experiments.
(D) Fluorescence micrographs of PMNs pretreated with 0.5 mM NA-11, 200 mM thionicotinamide (TN), 0.5 mM NA-4, or DMSO vehicle for 30 min, and then incubated with serum-opsonized Texas Red-conjugated zymosan particles (10 mg/mL) for 2 h. […]

[4] = substrate: O=C(CO)[C@@H](O)[C@H](O)[C@H](O)COP(=O)(O)O; assay: Recombinant PFKL3Mut activity assay; assay type: biochemical, human; settings: other: PFKL3Mut, pH 7.5, 225 μM ATP, 25.0 °C
Description: (§1) Recombinant N-terminal His-tagged human PFKL (NP_002617), PFKM (NP_000280), and PFKP (NM_002627.4) were generated as described ([Webb et al., 2015], [2017]). Point mutants of PFK1 were generated using the QuikChange Lightning kit (Aligent).
(§2) His-tagged PFK1 was expressed and purified as described with slight modifications ([Webb et al., 2015], [2017]). Briefly, baculovirus was generated using the Bac-to-Bac Expression system (Invitrogen). PFK1 was expressed in 2-5 × 10^6 sf9 cells at a multiplicity of infection of two for 48 h. […] Protein was quantified using a Bradford Protein Assay kit (ThermoFisher Scientific), and aliquotes frozen in liquid nitrogen for storage at −80°C.
(§3) PFK1 activity was determined using the rate of FBP production via an auxiliary enzyme assay adapted to a 96-well format ([Brüser et al., 2012]; [Webb et al., 2015]). […] For assays containing FBP, the rate of ADP production was determined using the auxiliary enzymes pyruvate kinase (PK) and lactate dehydrogenase (LDH) (MilliporeSigma) in a buffer containing 250 μM phosphoenolpyruvic acid, […] NADH, 50 mM HEPES pH 7.5, 100 mM KCl, 1 mM DTT, and effector concentrations as described in the text. […] Absorbance at 340 nm was measured using a Varioskan LUX Multimode microplate reader (ThermoFisher). […]

[5] = substrate: O=C(CO)[C@@H](O)[C@H](O)[C@H](O)COP(=O)(O)O; assay: Recombinant PFKM activity assay; assay type: biochemical, human; settings: other: PFKM wild type, pH 7.0, 250 μM ATP, 25.0 °C
Description: as §1, §2, §3

[6] = substrate: O=C(CO)[C@@H](O)[C@H](O)[C@H](O)COP(=O)(O)O; assay: Recombinant PFKM+pocket activity assay; assay type: biochemical, human; settings: other: PFKM+pocket, pH 7.0, 250 μM ATP, 25.0 °C
Description: as §1, §2, §3

NC(=S)c1cccnc1 [TN, thionicotinamide, reference compound]
ROS production during phagocytosis of opsonized zymosan [1]: kept ROS production at basal levels | killing of phagocytosed bacteria (bacterial colonies recovered) [2]: less efficient killers of phagocytosed bacteria | phagocytosis (intracellular zymosan particles) [3]: neither NA-11 nor TN affected phagocytosis

B1: PFKL (K315R, V545L, and V582M), PFKL3Mut (Homo sapiens; K315R/V545L/V582M) (protein)
chain: MAAVDLEKLRASGAGKAIGVLTSGGDAQGMNAAVRAVTRMGIYVGAKVFLIYEGYEGLVEGGENIKQANWLSVSNIIQLGGTIIGSARCKAFTTREGRRAAAYNLVQHGITNLCVIGGDGSLTGANIFRSEWGSLLEELVAEGKISETTARTYSHLNIAGLVGSIDNDFCGTDMTIGTDSALHRIMEVIDAITTTAQSHQRTFVLEVMGRHCGYLALVSALASGADWLFIPEAPPEDGWENFMCERLGETRSRGSRLNIIIIAEGAIDRNGKPISSSYVKDLVVQRLGFDTRVTVLGHVQRGGTPSAFDRILSSRMGMEAVMALLEATPDTPACVVTLSGNQSVRLPLMECVQMTKEVQKAMDDKRFDEATQLRGGSFENNWNIYKLLAHQKPPKEKSNFSLAILNVGAPAAGMNAAVRSAVRTGISHGHTVYVVHDGFEGLAKGQVQEVGWHDVAGWLGRGGSMLGTKRTLPKGQLESIVENIRIYGIHALLVVGGFEAYEGVLQLVEARGRYEELCIVMCVIPATISNNVPGTDFSLGSDTALNAAMESCDRIKQSASGTKRRVFIVETMGGYCGYLATMTGIAVGADAAYVFEDPFNIHDLKVNVEHMTEKMKTDIQRGLVLRNEKCHDYYTTEFLYNLYSSEGKGVFDCRTNVLGHLQQGGAPTPFDRNYGTKLGVKAMLWLSEKLREVYRKGRVFANAPDSACVIGLKKKAVAFSPVTELKKDTDFEHRMPREQWWLSLRLMLKMLAQYRISMAAYVSGELEHVTRRTLSMDKGF
notes: made in house; host or cells: Sf9 insect cells (baculovirus)
Km [4]: 570 ± 60 µM

B2: human PFKM (Homo sapiens) (protein)
chain: MTHEEHHAAKTLGIGKAIAVLTSGGDAQGMNAAVRAVVRVGIFTGARVFFVHEGYQGLVDGGDHIKEATWESVSMMLQLGGTVIGSARCKDFREREGRLRAAYNLVKRGITNLCVIGGDGSLTGADTFRSEWSDLLSDLQKAGKITDEEATKSSYLNIVGLVGSIDNDFCGTDMTIGTDSALHRIMEIVDAITTTAQSHQRTFVLEVMGRHCGYLALVTSLSCGADWVFIPECPPDDDWEEHLCRRLSETRTRGSRLNIIIVAEGAIDKNGKPITSEDIKNLVVKRLGYDTRVTVLGHVQRGGTPSAFDRILGSRMGVEAVMALLEGTPDTPACVVSLSGNQAVRLPLMECVQVTKDVTKAMDEKKFDEALKLRGRSFMNNWEVYKLLAHVRPPVSKSGSHTVAVMNVGAPAAGMNAAVRSTVRIGLIQGNRVLVVHDGFEGLAKGQIEEAGWSYVGGWTGQGGSKLGTKRTLPKKSFEQISANITKFNIQGLVIIGGFEAYTGGLELMEGRKQFDELCIPFVVIPATVSNNVPGSDFSVGADTALNTICTTCDRIKQSAAGTKRRVFIIETMGGYCGYLATMAGLAAGADAAYIFEEPFTIRDLQANVEHLVQKMKTTVKRGLVLRNEKCNENYTTDFIFNLYSEEGKGIFDSRKNVLGHMQQGGSPTPFDRNFATKMGAKAMNWMSGKIKESYRNGRIFANTPDSGCVLGMRKRALVFQPVAELKDQTDFEHRIPKEQWWLKLRPILKILAKYEIDLDTSDHAHLEHITRKRSGEAAV
notes: as for B1
Km [5]: 610 ± 50 µM

B3: PFKM+pocket (R315 to lysine) (Homo sapiens; R315K) (protein)
chain: MTHEEHHAAKTLGIGKAIAVLTSGGDAQGMNAAVRAVVRVGIFTGARVFFVHEGYQGLVDGGDHIKEATWESVSMMLQLGGTVIGSARCKDFREREGRLRAAYNLVKRGITNLCVIGGDGSLTGADTFRSEWSDLLSDLQKAGKITDEEATKSSYLNIVGLVGSIDNDFCGTDMTIGTDSALHRIMEIVDAITTTAQSHQRTFVLEVMGRHCGYLALVTSLSCGADWVFIPECPPDDDWEEHLCRRLSETRTRGSRLNIIIVAEGAIDKNGKPITSEDIKNLVVKRLGYDTRVTVLGHVQRGGTPSAFDRILGSKMGVEAVMALLEGTPDTPACVVSLSGNQAVRLPLMECVQVTKDVTKAMDEKKFDEALKLRGRSFMNNWEVYKLLAHVRPPVSKSGSHTVAVMNVGAPAAGMNAAVRSTVRIGLIQGNRVLVVHDGFEGLAKGQIEEAGWSYVGGWTGQGGSKLGTKRTLPKKSFEQISANITKFNIQGLVIIGGFEAYTGGLELMEGRKQFDELCIPFVVIPATVSNNVPGSDFSVGADTALNTICTTCDRIKQSAAGTKRRVFIIETMGGYCGYLATMAGLAAGADAAYIFEEPFTIRDLQANVEHLVQKMKTTVKRGLVLRNEKCNENYTTDFIFNLYSEEGKGIFDSRKNVLGHMQQGGSPTPFDRNFATKMGAKAMNWMSGKIKESYRNGRIFANTPDSGCVLGMRKRALVFQPVAELKDQTDFEHRIPKEQWWLKLRPILKILAKYEIDLDTSDHAHLEHITRKRSGEAAV
notes: as for B1
Km [6]: 1410 ± 80 µM
